Measured values taken from paper PMC7002685, “Inhibition of vascular calcification by inositol phosphates derivatized with ethylene glycol oligomers” (Nature Communications, 2020).
Several values for one entry are separate records, joined by “and”; a condition that tells them apart may be missing. Equal values may be shown once. Read-outs that look alike come from different tables or passages of the source.

Legend:
CPPs = experiment: DLS of CPP hydrodynamic diameter in human serum; parameters: Dh: unit not given here
Protocol: To confirm the screening assay data, the hydrodynamic diameter of the CPPs was measured by dynamic light scattering (DLS).
Human serum studies were performed under sterile conditions at 37 °C as described previously. […] For serum background measurements, saline, human serum, and 100 mM HBS (pH 7.4 (RT)) were combined in a volume ratio of 2:8:10. […] The mixtures were incubated with continual slow mixing on a rotator (240 rotations/min, IKA KS 130 Basics Orbital Shaker) at 37 °C. After 1, 3, and 5 h of incubation, 500 µL aliquots were drawn under sterile conditions to prevent microorganism growth contamination and subjected to DLS analysis at 37 °C. For each experiment, three replicates were produced and a single measurement per sample and time point was performed.

[1] = tested on: transformation of CPP1 to CPP2 in pooled human serum; experiment: In vitro serum calcification propensity (T50) screening assay; format: biochemical; parameters: key to T50: T50 in minutes (time to 50% CPP phase transition); settings: for activity/unit mass: mean c350 x mw (Na salt); for concentration upon which a T50 of 350 min is reached (c350), mean: mean of n experiments
PK in healthy rats, s.c. = format: in vivo, male Sprague-Dawley rats; settings: for MRT: read-out: mean residence time (MRT) (converted); for plasma concentration: unit not given
Opiate μ (OP3, MOP) = target: T1, Opiate μ (OP3, MOP) (Homo sapiens, UniProt P35372); experiment: Off-target 260410; format: binding
T1 construct: purchased Eurofins Panlabs Discovery Services Taiwan, Ltd
T1 sequence (P35372 whole entry): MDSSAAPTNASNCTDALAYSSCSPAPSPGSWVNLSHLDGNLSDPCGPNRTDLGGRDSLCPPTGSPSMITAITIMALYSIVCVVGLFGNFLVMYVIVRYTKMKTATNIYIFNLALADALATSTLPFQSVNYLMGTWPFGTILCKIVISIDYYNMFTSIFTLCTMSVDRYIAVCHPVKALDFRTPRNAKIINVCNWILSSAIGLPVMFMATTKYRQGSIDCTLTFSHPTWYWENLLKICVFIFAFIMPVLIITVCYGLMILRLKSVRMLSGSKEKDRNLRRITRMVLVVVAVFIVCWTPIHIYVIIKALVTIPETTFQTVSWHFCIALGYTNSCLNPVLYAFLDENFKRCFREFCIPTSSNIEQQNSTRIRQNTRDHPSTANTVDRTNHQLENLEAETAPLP
Protocol: The potential off-target activity of 10 µM (OEG2)2-IP4 was assessed against a panel of 87 enzymes, receptors, or ion channels that are used in standard safety pharmacology screens.
3.2. Off-target screening assay
The experiments were conducted by a contract research organization (Eurofins Panlabs Discovery Services Taiwan, Ltd.) and details on the respective assays can be retrieved via the catalog number provided in Supplementary Table 11 from the company’s webpage
(https://www.eurofinsdiscoveryservices.com/). […]
At sacrifice the left tibia of animals of the rat model with dietary adenine/high-phosphate-induced uremia and VC was collected, fixed with 70% v/v EtOH and embedded in methyl methacrylate. The trabecular bone compartment is known to be the most metabolic active i.e. actively re-structured bone compartment in CKD. Therefore, histomorphometric and micro-computed tomography (µCT) analysis of bone was performed on the trabecular compartment. Tibial sections were Goldner-stained for histomorphometric analysis of the proximal metaphysis using the AxioVision Release 4.5 software, as […]
described previously5. […]

[2] = 3 µM, individual experiments, Fig. 2a
[3] = 10 µM, individual experiments, Fig. 2a
[4] = male, Sprague-Dawley, rat, in vivo, sc, 10 mg/kg s.c.
[5] = male, Sprague-Dawley, rat, in vivo, sc, 50 mg/kg s.c.
[6] = Supl.Fig.4 panel b, time 1 (unit not given)
[7] = male, Sprague-Dawley, rat, plasma, sc, 100 mg/kg s.c.

SMILES: COCCOCCO[C@@H]1[C@@H](OP(=O)(O)O)[C@H](OCCOCCOC)[C@@H](OP(=O)(O)O)[C@@H](OP(=O)(O)O)[C@H]1OP(=O)(O)O [(OEG2)2-IP4, 4,6-Di-O-(methoxy-diethyleneglycol)-myo-inositol-1,2,3,5-tetrakis(phosphate)]
- CPP particle growth (DLS) (CPPs; added to CPP1s at a final concentration of 30 µM): stabilized particle growth
- T50 ([1]; 0.3 µM, individual experiments, Fig. 2a): 225.667 min and 200.6 min and 198.8 min
- T50 ([1]; 1 µM, individual experiments, Fig. 2a): 245.5 min and 222.6 min and 227.433 min
- T50 [1, 2]: 295.5 min and 257.733 min and 269.633 min
- T50 [1, 3]: 669.833 min and 505.133 min and 608.55 min
- T50 ([1]; concentration 0.3 μM, one value per experiment): 225.667 and 200.6 and 198.8
- T50 ([1]; concentration 1 μM, one value per experiment): 245.5 and 222.6 and 227.433
- T50 ([1]; concentration 3 μM, one value per experiment): 295.5 and 257.733 and 269.633
- T50 ([1]; concentration 10 μM, one value per experiment): 669.833 and 505.133 and 608.55
- stronger inhibition than (OEG11)2-IP4, activity by unit mass ([1]; from c350 in mg/L): 32%
- activity/unit mass [1]: 4.30 mg/L
- concentration upon which a T50 of 350 min is reached (c350), mean [1]: 4.9 µM
- concentration upon which a T50 of 350 min is reached (c350), single experiment ([1]; one value per experiment (lab journal reference E05-E40)): 4.3 µM and 5.9 µM and 5.0 µM and 3.6 µM and 5.4 µM
- Concentration at T50 = 350 min mean ± s.d. (n) (c350) ([1]; pooled human serum, 10 mM calcium, 6 mM phosphate, 37 °C): 4.9 ± 0.8 µM and 4.3 ± 0.7 mg/L
- AUC(0-t) (PK in healthy rats, s.c.; male, Sprague-Dawley, rat, in vivo, sc, 10 mg/kg, 10 mg/kg s.c., t = 360 min): 19.8 µM·h
- AUC(0-t) (PK in healthy rats, s.c.; male, Sprague-Dawley, rat, in vivo, sc, 50 mg/kg, 50 mg/kg s.c., tlast 1440 min): 120 µM·h
- AUC(0-inf) (PK in healthy rats, s.c.; [4]): 19.9 µM·h
- Tmax (PK in healthy rats, s.c.; [4]): 25 min
- half-life (PK in healthy rats, s.c.; male, Sprague-Dawley, rat, in vivo, sc, 10 mg/kg s.c., healthy rats): 47 ± 1 min
- Cmax (PK in healthy rats, s.c.; male, Sprague-Dawley, rat, in vivo, sc, 10 mg/kg s.c., read-out: Cmax): 12 ± 1 µM
- AUC(0-inf) (PK in healthy rats, s.c.; [5]): 122 µM·h
- half-life (PK in healthy rats, s.c.; [5]): 190 ± 66 min
- Cmax (PK in healthy rats, s.c.; male, Sprague-Dawley, rat, in vivo, sc, 50 mg/kg s.c., read-out: Cmax): 71 ± 26 µM
- MRT (PK in healthy rats, s.c.; male, Sprague-Dawley, rat, in vivo, sc): 78 min
- inhibition at 10 µM (Opiate μ (OP3, MOP)): 11%

SMILES: O=P(O)(O)O[C@H]1[C@H](OP(=O)(O)O)[C@@H](OP(=O)(O)O)[C@H](OP(=O)(O)O)[C@@H](OP(=O)(O)O)[C@H]1OP(=O)(O)O [IP6, myo-Inositol hexakisphosphate]
- Dh (CPPs; [6]): 88.6 and 105.8 and 120.4
- PDI (CPPs; [6]): 0.387 and 0.354 and 0.351
- Dh (CPPs; Supl.Fig.4 panel b, time 3): 117.9 and 117.1 and 132.1
- PDI (CPPs; Supl.Fig.4 panel b, time 3): 0.358 and 0.359
- Dh (CPPs; Supl.Fig.4 panel b, time 5): 120.1 and 126.7 and 139.4
- PDI (CPPs; Supl.Fig.4 panel b, time 5): 0.352 and 0.371 and 0.353
- Dh (CPPs; Supl.Fig.4 panel d, time 1): 134.2 and 137.5 and 124.1
- PDI (CPPs; Supl.Fig.4 panel d, time 1): 0.243 and 0.215 and 0.244
- PDI (CPPs; Supl.Fig.4 panel d, time 3): 0.263 and 0.405 and 0.247
- Dh (CPPs; Supl.Fig.4 panel d, time 5): 829.4 and 949 and 968.9
- PDI (CPPs; Supl.Fig.4 panel d, time 5): 0.375 and 0.401 and 0.371
- Dh (CPPs; Supl.Fig.4 panel e, time 1): 121.9 and 131.6 and 127.5
- PDI (CPPs; Supl.Fig.4 panel e, time 1): 0.239 and 0.253 and 0.225
- Dh (CPPs; Supl.Fig.4 panel e, time 3): 917.4 and 1163.2 and 967.1
- PDI (CPPs; Supl.Fig.4 panel e, time 3): 0.279 and 0.365 and 0.211
- Dh (CPPs; Supl.Fig.4 panel e, time 5): 1239.9 and 912.5 and 1030.4
- PDI (CPPs; Supl.Fig.4 panel e, time 5): 0.335 and 0.413 and 0.307
- Dh (CPPs; Supl.Fig.4 panel f, time 1): 151.1 and 134.7 and 128.6
- PDI (CPPs; Supl.Fig.4 panel f, time 1): 0.231 and 0.246 and 0.242
- Dh (CPPs; Supl.Fig.4 panel f, time 3): 1215.5 and 1246.8 and 894.9
- Dh (CPPs; Supl.Fig.4 panel f, time 5): 938.5 and 1174.7 and 1102.1
- PDI (CPPs; Supl.Fig.4 panel f, time 5): 0.341 and 0.349 and 0.237
- Dh (CPPs; Supl.Fig.4 panel g, time 1): 161.6 and 144.6 and 111.2
- PDI (CPPs; Supl.Fig.4 panel g, time 1): 0.205 and 0.233 and 0.237
- PDI (CPPs; Supl.Fig.4 panel g, time 3): 0.21 and 0.2 and 0.256
- PDI (CPPs; Supl.Fig.4 panel g, time 5): 0.256 and 0.391 and 0.263
- Dh (CPPs; Supl.Fig.4 panel h, time 1): 140.9 and 155.6 and 124.7
- PDI (CPPs; Supl.Fig.4 panel h, time 1): 0.242 and 0.211 and 0.261
- PDI (CPPs; Supl.Fig.4 panel h, time 3): 0.224 and 0.271 and 0.403
- Dh (CPPs; Supl.Fig.4 panel h, time 5): 698.6 and 1132.6 and 867.3
- PDI (CPPs; Supl.Fig.4 panel h, time 5): 0.295 and 0.332 and 0.35
- Dh (CPPs; Supl.Fig.4 panel i, time 1): 144.5 and 156.7 and 136.9
- PDI (CPPs; Supl.Fig.4 panel i, time 1): 0.23 and 0.222 and 0.25
- Dh (CPPs; Supl.Fig.4 panel i, time 3): 161.1 and 174.2 and 140.3
- PDI (CPPs; Supl.Fig.4 panel i, time 3): 0.256 and 0.273 and 0.247
- Dh (CPPs; Supl.Fig.4 panel i, time 5): 832.1 and 1065.7 and 818.8
- PDI (CPPs; Supl.Fig.4 panel i, time 5): 0.38 and 0.379 and 0.375
- T50 [1, 2]: 234.667 min and 274 min and 233.967 min and 253.933 min and 243.267 min and 241.767 min and 246.2 min and 235.9 min and 228.633 min and 203.267 min and 288.2 min and 222.867 min and 230.267 min and 213.667 min and 216.7 min and 265.633 min and 255.267 min
- T50 ([1]; 4.1 µM, individual experiments, Fig. 2a): 217.4 min and 239.4 min and 277.7 min and 241.067 min
- T50 ([1]; 5 µM, individual experiments, Fig. 2a): 249.8 min and 203.1 min and 210 min
- T50 ([1]; 8.2 µM, individual experiments, Fig. 2a): 256.2 min
- T50 [1, 3]: 257.5 min and 310.933 min and 271.067 min and 277.3 min and 252.767 min and 292.233 min and 259.167 min and 287.2 min and 285.433 min and 258.3 min and 249.2 min and 255.267 min and 337.4 min and 269.2 min and 241.433 min and 220.9 min and 227.45 min and 265.233 min and 247.333 min and 278 min and 268.867 min
- T50 ([1]; 15 µM, individual experiments, Fig. 2a): 257.433 min and 252.1 min and 309.067 min and 247.867 min
- T50 ([1]; 20 µM, individual experiments, Fig. 2a): 287.15 min and 265.7 min and 269.8 min
- T50 ([1]; 30 µM, individual experiments, Fig. 2a): 345.45 min and 406.133 min and 372.8 min and 351.75 min and 343.7 min and 344.2 min and 259.35 min and 335.5 min and 347.9 min and 378.6 min and 321.233 min and 338 min and 297.667 min and 289.1 min and 328.133 min and 313.633 min and 374.867 min and 311.7 min and 330.9 min and 290.033 min and 322.15 min and 364.5 min and 339.867 min
- T50 ([1]; 50 µM, individual experiments, Fig. 2a): 415 min and 521.55 min and 441.5 min and 442 min and 442.167 min and 430.55 min and 469.15 min and 469.7 min and 444.5 min and 341.15 min and 548.25 min and 437.6 min and 408.433 min and 339.067 min and 334.933 min and 396.5 min and 364.133 min and 373.7 min and 353.2 min and 360.8 min and 372.45 min and 446.2 min and 371.033 min and 410.7 min
- activity/unit mass [1]: 30.85 mg/L
- concentration upon which a T50 of 350 min is reached (c350), mean [1]: 35.0 µM
- plasma concentrations (below lower limit of quantification) (PK in healthy rats, s.c.; 10 mg/kg s.c.): < 0.772 µM
- Cmax (PK in healthy rats, s.c.; 10 mg/kg s.c., LLOQ = 772 nM): < LLOQ
- plasma concentration (PK in healthy rats, s.c.; 100 mg/kg s.c., 5 min): 20.1 and 17.5 and 23.6
- plasma concentration (PK in healthy rats, s.c.; 100 mg/kg s.c., 0.5 h): 13.6 and 19.8 and 10.3
- AUC(0-inf) (PK in healthy rats, s.c.; [7]): 22.4 µM·h
- Tmax (PK in healthy rats, s.c.; [7]): 12 min
- half-life (PK in healthy rats, s.c.; [7]): 29 ± 15 min
- AUC(0-t) (PK in healthy rats, s.c.; male, Sprague-Dawley, rat, plasma, sc, 100 mg/kg s.c., t = 90 min (Fig. 4d; tlast 360 in Suppl. Table 2)): 19.4 µM·h
- Cmax (PK in healthy rats, s.c.; male, Sprague-Dawley, rat, plasma, sc, 100 mg/kg s.c., read-out: Cmax): 33 ± 10 µM
- MRT (PK in healthy rats, s.c.; male, Sprague-Dawley, rat, plasma, sc): 45 min
